The target in experiment [1] is T1, Serotonin 3 (5-HT3) receptor (Rattus norvegicus, UniProt P35563+Q9JJ16).
T1 sequence (P35563 whole entry): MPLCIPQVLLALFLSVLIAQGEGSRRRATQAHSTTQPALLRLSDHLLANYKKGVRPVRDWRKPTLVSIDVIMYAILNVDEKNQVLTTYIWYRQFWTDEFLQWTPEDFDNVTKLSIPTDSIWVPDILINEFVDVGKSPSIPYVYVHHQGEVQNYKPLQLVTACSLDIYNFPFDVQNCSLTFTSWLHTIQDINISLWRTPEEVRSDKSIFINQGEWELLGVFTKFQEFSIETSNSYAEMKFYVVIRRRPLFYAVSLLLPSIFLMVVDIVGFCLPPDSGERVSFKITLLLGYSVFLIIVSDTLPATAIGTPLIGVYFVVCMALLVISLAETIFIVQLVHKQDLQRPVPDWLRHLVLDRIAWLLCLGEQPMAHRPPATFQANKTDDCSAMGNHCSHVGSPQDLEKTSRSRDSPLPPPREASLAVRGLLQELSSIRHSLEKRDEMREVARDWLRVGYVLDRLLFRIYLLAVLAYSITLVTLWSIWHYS
T1 sequence (Q9JJ16 whole entry): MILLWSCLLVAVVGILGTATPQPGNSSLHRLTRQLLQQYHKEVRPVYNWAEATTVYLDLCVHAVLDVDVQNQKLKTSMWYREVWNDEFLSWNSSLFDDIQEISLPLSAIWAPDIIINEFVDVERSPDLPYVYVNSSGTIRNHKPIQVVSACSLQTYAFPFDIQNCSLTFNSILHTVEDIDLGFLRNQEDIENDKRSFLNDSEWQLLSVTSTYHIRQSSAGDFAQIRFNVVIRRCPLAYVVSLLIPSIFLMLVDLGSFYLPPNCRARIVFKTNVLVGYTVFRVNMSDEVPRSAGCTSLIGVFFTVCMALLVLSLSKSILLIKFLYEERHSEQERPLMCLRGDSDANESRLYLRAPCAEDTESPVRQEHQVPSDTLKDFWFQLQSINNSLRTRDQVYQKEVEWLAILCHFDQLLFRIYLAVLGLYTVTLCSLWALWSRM
As to the kind of experiment: Binding affinity at 5-hydroxytryptamine 3 receptor in rat posterior cortex by [3H]-BRL 43694 displacement. The class given is tissue-based, Brain.

Experiment [2] deals with Rattus norvegicus. Nature of the experiment: Antagonism of the bradycardia induced by iv injection of 5-HT(10-30 ug/kg) was evaluated by the compound administration in rat; 82-190. Conditions: read-out: ID50 (the source's name). The class given is functional.
Experiment [3] concerns Rattus norvegicus. As to the kind of experiment: Antagonism of the bradycardia induced by iv injection of 5-HT(10-30 ug/kg) was evaluated by the compound administration in rat. The class given is functional. Conditions: read-out: ID50 (the source's name).
Experiment [4] concerns Rattus norvegicus. Nature of the experiment: Antagonism of the bradycardia induced by iv injection of 5-HT(10-30 ug/kg) was evaluated by the compound administration in rat; 12-55. The class given is functional. Conditions: read-out: ID50 (the source's name).
The test system of experiment [5] is Rattus norvegicus. As to the kind of experiment: Antagonism of the bradycardia induced by iv injection of 5-HT(10-30 ug/kg) was evaluated by the compound administration in rat; 0.3-3.4. It counts as functional. Conditions: read-out: ID50 (the source's name).
Experiment [6] deals with Rattus norvegicus. As to the kind of experiment: Antagonism of the bradycardia induced by iv injection of 5-HT(10-30 ug/kg) was evaluated by the compound administration in rat; 52-205. It counts as functional. Conditions: read-out: ID50 (the source's name).
In experiment [7] the test system is Rattus norvegicus. Nature of the experiment: Antagonism of the bradycardia induced by iv injection of 5-HT(10-30 ug/kg) was evaluated by the compound administration in rat; 0.05-0.75. It counts as functional. Conditions: read-out: ID50 (the source's name).
Experiment [8] deals with Rattus norvegicus. As to the kind of experiment: Antagonism of the bradycardia induced by iv injection of 5-HT(10-30 ug/kg) was evaluated by the compound administration in rat; 0.7-3.6. It counts as functional. Conditions: read-out: ID50 (the source's name).
Experiment [9] deals with Rattus norvegicus. Nature of the experiment: Antagonism of the bradycardia induced by iv injection of 5-HT(10-30 ug/kg) was evaluated by the compound administration in rat; 1.7-74. It counts as functional. Conditions: read-out: ID50 (the source's name).
Experiment [10] relates to Rattus norvegicus. As to the kind of experiment: Antagonism of the bradycardia induced by iv injection of 5-HT(10-30 ug/kg) was evaluated by the compound administration in rat; 8-55. The class given is functional. Conditions: read-out: ID50 (the source's name).
Experiment [11] relates to Rattus norvegicus. Nature of the experiment: Antagonism of the bradycardia induced by iv injection of 5-HT(10-30 ug/kg) was evaluated by the compound administration in rat; 3.8-8.7. The class given is functional. Conditions: read-out: ID50 (the source's name).
For experiment [12], the system named is Rattus norvegicus. Nature of the experiment: Antagonism of the bradycardia induced by iv injection of 5-HT(10-30 ug/kg) was evaluated by the compound administration in rat; 3-8. Conditions: read-out: ID50 (the source's name). The class given is functional.
The test system of experiment [13] is Rattus norvegicus. Nature of the experiment: Antagonism of the bradycardia induced by iv injection of 5-HT(10-30 ug/kg) was evaluated by the compound administration in rat; 81-615. It counts as functional. Conditions: read-out: ID50 (the source's name).
Experiment [14] relates to Rattus norvegicus. Nature of the experiment: Antagonism of the bradycardia induced by iv injection of 5-HT(10-30 ug/kg) was evaluated by the compound administration in rat; 2.5-3.9. It counts as functional. Conditions: read-out: ID50 (the source's name).

Bounds are passed on as bounds.

In experiment [1], `O=C1c2cccc3cccc(c23)CN1[C@@H]1CN2CCC1CC2` had a Ki of 2.2 nM.

Regarding `O=C1c2cccc3c(Cl)ccc(c23)C(=O)N1C1CN2CCC1CC2` (centres undefined), in [1], affinity was put at a Ki of 14 nM. The ED50 in experiment [2] was found to be 0.125 mg/kg.

For the compound `CN1CCC(N2C(=O)c3cccc4cccc(c34)C2=O)CC1`, the ED50 in experiment [3] came out at 0.5 mg/kg. Also, affinity in experiment [1] was put at a Ki of 15 nM.

Consider `COc1ccccc1C(=O)NC1CN2CCC1CC2` (centres undefined), for which the Ki in [1] was 22 nM. In addition, the ED50 in [4] came out at 0.025 mg/kg.

As for `CN1C2CCC1CC(N1C(=O)c3cccc4cccc(c34)C1=O)C2` (centres undefined), the ED50 in experiment [3] is over 0.25 mg/kg. Moreover, the inhibition constant Ki in experiment [1] stood at 374 nM.

On to `COc1cc(N)c(Cl)cc1C(=O)N[C@H]1CN2CCC1CC2` [(R)ZACOPRIDE], for which the ED50 in experiment [5] was 0.001 mg/kg. Also, in experiment [1], affinity was put at a Ki of 2.6 nM.

For `O=c1[nH]c2ccccc2c(=O)n1C1CN2CCC1CC2` (centres undefined), affinity in experiment [1] was put at a Ki of 80 nM. For the same compound, the ED50 in experiment [6] was 0.103 mg/kg.

`COc1cc(N)c(Cl)cc1C(=O)N[C@@H]1CN2CCC1CC2`: the ED50 in [7] was 0.0002 mg/kg. The same compound had a Ki in [1] of 0.2 nM.

`O=C1c2cccc3c(Br)ccc(c23)C(=O)N1C1CN2CCC1CC2` (centres undefined): in [3], the ED50 was over 0.25 mg/kg. Moreover, affinity in experiment [1] was put at a Ki of 41 nM.

With `Nc1ccc2c3c(cccc13)C(=O)N([C@H]1CN3CCC1CC3)C2=O`, the ED50 in experiment [8] turned out to be 0.0016 mg/kg. The affinity in [1], expressed as Ki, was 0.15 nM.

With `O=C1c2cccc3cccc(c23)C(=O)N1C1CN2CCC1CC2` (centres undefined), in experiment [1], the Ki came to 2.7 nM. For the same compound, the ED50 in [9] came out at 0.011 mg/kg.

Consider `Nc1ccc2c3c(cccc13)C(=O)N([C@@H]1CN3CCC1CC3)C2=O`, for which, in experiment [1], the affinity corresponds to a Ki of 23.5 nM. Moreover, the ED50 in experiment [10] was 0.021 mg/kg.

On to `O=c1[nH]c2ccc(Cl)cc2c(=O)n1C1CN2CCC1CC2` (centres undefined), for which, in experiment [3], the ED50 turned out to be 0.08 mg/kg. The compound further had a Ki in experiment [1] of 30 nM.

For the compound `O=C1c2cccc3cccc(c23)C(=O)N1[C@H]1CN2CCC1CC2`, in [1], the inhibition constant Ki amounted to 0.9 nM. In [11], the ED50 is 0.0057 mg/kg.

In experiment [1], `O=C1c2cccc3cccc(c23)CN1[C@H]1CN2CCC1CC2` registered a Ki of 2.3 nM.

Consider `O=C1c2cccc3c([N+](=O)[O-])ccc(c23)C(=O)N1C1CN2CCC1CC2` (centres undefined), for which, in experiment [12], the ED50 was 0.00525 mg/kg. The inhibitory constant (Ki) in experiment [1] came to 31 nM.

Compound `O=C1c2cccc3cccc(c23)C(=O)N1[C@@H]1CN2CCC1CC2` yielded a Ki in experiment [1] of 61 nM. Also, in [13], the ED50 came out at 0.224 mg/kg.

On to `Nc1ccc2c3c(cccc13)C(=O)N(C1CN3CCC1CC3)C2=O` (centres undefined), for which the ED50 in experiment [14] came to 0.003 mg/kg. This compound also registered a Ki in experiment [1] of 0.5 nM.

In general, Ki refers to a measure of affinity in units of concentration, obtained from inhibition or displacement. Lower therefore signals a stronger hold on the target.

The record behind these values is ChEMBL document CHEMBL1126233, “Derivatives of naphthalimide: new potent conformationally restricted antagonists of 5-HT3 receptors” (Bioorg Med Chem Lett, 1992).
